Results as given in PMC11477298, “Small Molecules Inducing Autophagic Degradation of Expanded Polyglutamine Protein through Interaction with Both Mutant ATXN3 and LC3” (International Journal of Molecular Sciences, 2024).

Tests used:
Assay type in all cases: cell-based, human
[1] = MTT compound cytotoxicity assay; conditions: human, ATXN3-Q75-GFP SH-SY5Y cells, 0.1–100 μM compound, viability analyzed the next day, n = 3
Procedure: For the compound cytotoxicity assay, ATXN3-Q75-GFP SY5Y cells (2 × 10^4) were plated into 96-well dishes, grown for 20 h, and treated with 0.1–100 μM test compounds. After 1 day, 3-(4,5-dimethylthiazol-2-yl)-2,5-diphenyltetrazolium bromide (MTT, 5 mg/mL) (Sigma-Aldrich, St. Louis, MO, USA) was added to the cells and incubated for 3 h at 37 °C. Lysis buffer (10% Triton X-100, 0.1 N HCl, 18% isopropanol) was then added to dissolve the insoluble formazan crystals. The absorbance of the purple-colored solution was measured at optical density (OD) 570 nm by using a FLx800 fluorescence microplate spectrophotometer (Bio-Tek, Winooski, VT, USA). The half-maximal inhibitory concentration (IC50) was calculated through the construction of a dose–response curve.

[2] = test system: ATXN3-Q75-GFP SH-SY5Y cells; assay: High-content neurite outgrowth assay; conditions: for Neurite branch: untreated 1.16; for Neurite length: untreated 23.2 µm
Procedure: (§1) ATXN3-Q75-GFP SH-SY5Y cells (5 × 10^4/well) were plated onto 24-well plates, with retinoic acid addition (10 µM; Sigma-Aldrich) on day 1 to initiate neuronal differentiation. On day 2, the cells were pretreated with disaccharide trehalose (10 mM, as a positive control) or the studied compounds (10 μM) for 8 h, followed by the addition of doxycycline (5 μg/mL, Sigma-Aldrich) to induce ATXN3-Q75-GFP expression. The cells were kept in the medium containing retinoic acid, the test compound, and doxycycline for 6 days, with the culture medium changed on day 5. ATXN3-Q75 aggregation and neurite outgrowth assays were performed on day 8 using a high-content imaging system (ImageXpress Micro Confocal; Molecular Devices).
For the aggregation assay, cells were stained with Hoechst 33342 (0.1 µg/mL; Sigma-Aldrich) at 37 °C for 30 min. Images of the cells were automatically obtained at excitation/emission wavelengths of 482/536 nm (FITC [fluorescein isothiocyanate] filter) for enhanced GFP and 377/447 nm (DAPI [4′,6-diamidino-2-phenylindole] filter) for nucleus counting. ATXN3-Q75 aggregation was determined by Transfluor technology based on GFP fluorescence intensity. For the neurite outgrowth assay, cells were fixed with 4% paraformaldehyde for 30 min, permeabilized with 0.1% Triton X-100 for 10 min, and blocked by non-specific binding with 3% bovine serum albumin for 20 min. The primary TUBB3 (neuronal class III β-tubulin) antibody (1:1000; BioLegend #802001, San Diego, CA, USA) was used to stain cells at 4 °C overnight, followed by Alexa Fluor 555-donkey anti-rabbit IgG secondary antibody (1:1000; Invitrogen #A-31572) staining for 2 h at room temperature. Nuclei were detected using DAPI (0.1 μg/mL; Sigma-Aldrich). Cell images were obtained at excitation/emission wavelengths of 531/593 nm (TRITC [tetramethylrhodamine] filter) for stained neurites and 377/447 nm (DAPI filter) for nuclei. To quantify neurite outgrowth, microscopic images were segmented with multi-colored masks to assign each outgrowth to a cell body for quantification. Neurite total length (μm) and numbers of process (primary neurites originating from neuronal cell body) and branch (secondary neurites extended from primary neurites) were analyzed (Neurite Outgrowth Application Module; Molecular Devices). In general, […] in each biological replicate were analyzed.

[3] = test system: ATXN3-Q75-GFP SH-SY5Y cells; assay: Confocal microscopy of LC3 puncta, ATXN3-Q75 aggregates and P62 colocalization; conditions: range over trehalose and the four compounds; for Colocalization coefficient of ATXN3-Q75-GFP with LC3 puncta: untreated 0.014; for Colocalization coefficient of LC3 with P62: untreated 0.21; for LC3 puncta per cell: untreated induced 2.7
Procedure: ATXN3-Q75-GFP SY5Y cells were seeded onto 12-well plates (1 × 10^5/well) containing poly-L-lysine-coated coverslip on day 1; treated with retinoic acid, test compounds, and doxycycline on day 2; and fixed, permeabilized, and blocked on day 8, as described. The primary anti-LC3 antibody (1:1000; Cell Signaling #83506, Danvers, MA, USA) or anti-P62 antibody (1:1500; Cell Signaling #5114) was used to stain cells at 4 °C overnight. After washing with PBS containing 0.1% Tween 20 (PBST), cells were incubated for 2 h at room temperature with Cy5-conjugated (1:1000, Jackson ImmunoResearch 715-175-150) or Alexa Fluor 555-conjugated (1:500; Invitrogen #A-31572) secondary antibody, and washed three times with PBST. Nuclei were detected using DAPI (0.1 μg/mL; Sigma-Aldrich). The stained cells on coverslips were mounted onto microscope slides with Vectashield antifade mounting medium (Vector Laboratories, Newark, CA, USA) and examined using a Zeiss LSM880 confocal microscope (Carl Zeiss AG, Oberkochen, Baden-Württemberg, Germany). Cell images were acquired at excitation/emission wavelengths of 649/666 nm, 482/536 nm, 555/582 nm, and 385/461 nm for stained LC3 puncta, aggregates, P62, and nuclei, respectively. For colocalization, 300 cells from three independent experiments were analyzed and quantified for the proportion of pixels that LC3 (red) colocalized with P62 (yellow) using Mander’s overlap coefficient (MOC) in ZEN software version 2.1 (Carl Zeiss AG).

[4] = test system: ATXN3-Q75-GFP SH-SY5Y cells; assay: Western blot of LC3-II:LC3-I ratio; conditions: uninduced = 100%, untreated induced 76%, range over trehalose and the four compounds
Procedure: For the immunoblotting analysis, ATXN3-Q75-GFP SH-SY5Y cells were seeded in 6-well plates (3 × 10^5/well) and treated with retinoic acid, test compounds, and doxycycline, as described. On day 8, cells were collected and lysed in buffer (50 mM Tris-HCl pH 8.0, 150 mM NaCl, 2 mM EDTA pH 8.0, 0.1% SDS, 0.5% sodium deoxycholate, 1% NP-40) containing the protease inhibitor cocktail (Sigma-Aldrich). After sonication, the lysates were centrifuged (12,000× g for 10 min at 4 °C) and protein concentrations determined (Bradford protein assay; Bio-Rad, Hercules, CA, USA). Aliquots of protein (20 µg) were separated by electrophoresis using 12% SDS-polyacrylamide gel followed by transfer to a polyvinylidene fluoride membrane. After being blocked with 5% skim milk at 4 °C overnight, the membrane was stained with LC3 (1:1000; Medical & Biological Laboratories Co. #PM036, Tokyo, Japan) or GAPDH (glyceraldehyde 3-phosphate dehydrogenase) (1:1000, MDBio #30000002, Taipei, Taiwan) primary antibody at 4 °C overnight. The immune complexes were detected using HRP-conjugated goat anti-rabbit IgG antibody and chemiluminescent substrate, as described.

[5] = test system: ATXN3-Q75-GFP SH-SY5Y cells; assay: High-content analysis of ATXN3-Q75 aggregation in cells; conditions: trehalose 10 mM; untreated induced cells 8.2%; day 8
Procedure: as §1, with “ATXN3-Q75 aggregation and neurite outgrowth assays were performed on day 8 using a high-content imaging system (ImageXpress Micro Confocal; Molecular Devices).” left out
For the aggregation assay, cells were stained with Hoechst 33342 (0.1 µg/mL; Sigma-Aldrich) at 37 °C for 30 min. […] ATXN3-Q75 aggregation was determined by Transfluor technology based on GFP fluorescence intensity. […] Nuclei were detected using DAPI (0.1 μg/mL; Sigma-Aldrich). […] To quantify neurite outgrowth, microscopic images were segmented with multi-colored masks to assign each outgrowth to a cell body for quantification. Neurite total length (μm) and numbers of process (primary neurites originating from neuronal cell body) and branch (secondary neurites extended from primary neurites) were analyzed (Neurite Outgrowth Application Module; Molecular Devices). In general, 104 cells in each biological replicate were analyzed.

[6] = test system: ATXN3-Q75-GFP SH-SY5Y cells; assay: Filter trap assay of cell lysates; conditions: trehalose 10 mM; without compound = 100%
Procedure: The filter retardation assay was performed to quantify ATXN3-Q75 protein aggregates. The purified Trx-His-ATXN3-Q75 protein was incubated with test compounds (100 µM) at 37 °C for 2 days as described. In addition, proteins from compound-treated ATXN3-Q75-GFP SH-SY5Y cells were prepared (as described in Western blotting). Proteins (0.5 µg of biochemical reaction or 20 µg of cellular lysates) were diluted in 2% SDS in phosphate-buffered saline (PBS) and filtered through a cellulose acetate membrane (0.45-μm pore size; Sterlitech, Auburn, WA, USA) pre-equilibrated in 2% SDS in PBS on a dot-blot filtration apparatus (Bio-Rad Laboratories, Hercules, CA, USA). After washing with 2% SDS buffer, the membrane was blocked in PBS containing 5% skim milk at 4 °C overnight. Insoluble ATXN3-Q75 was probed with an anti-His tag (1:2000; OriGene #TA100013, Rockville, MD, USA) or anti-ATXN3 (1:1000; Invitrogen #PA5-26251) antibody. The immune complex on the filter was detected using horseradish peroxidase (HRP)-conjugated goat anti-mouse (#GTX213111-01) or goat anti-rabbit (#GTX213110-01) immunoglobulin G (IgG) antibody (1:5000; GeneTex, Irvine, CA, USA) and a chemiluminescent HRP substrate (Millipore, Billerica, MA, USA). The chemiluminescent signals were captured with an ImageQuant LAS 4000 (GE Healthcare, Chicago, IL, USA) and quantified (Multi Gauge V3.0 software, Fujifilm, Tokyo, Japan). […]

[7] = compound 10 µM, range over the four named compounds

O=C(/C=C/c1ccco1)c1c(O)c2ccccc2oc1=O [LM-022]
IC50 at 1 day [1]: 102 µM

CC(=O)/C(=C\c1ccccc1[N+](=O)[O-])Cc1c(-c2ccccc2)[nH]c2ccccc12 [NC009-3]
IC50 at 1 day [1]: > 100 µM

CCc1cccc2c(C/C(=C/c3ccccc3[N+](=O)[O-])C(C)=O)c[nH]c12 [NC009-6]
IC50 at 1 day [1]: 176 µM | Neurite branch [2, 7]: 1.34–1.37 | Neurite process ([2]; compound 10 µM, untreated 2.41, range over the four named compounds): 2.55–2.57 | Neurite length [2, 7]: 26.1–26.9 µm | Colocalization coefficient of ATXN3-Q75-GFP with LC3 puncta ([3]; compound 10 μM): 0.025–0.030 | Colocalization coefficient of LC3 with P62 ([3]; compound 10 μM): 0.26–0.29 | LC3 puncta per cell ([3]; compound 10 μM): 4.6–6.7 | Relative LC3-II:LC3-I ratio ([4]; compound 10 μM): 102–124%

OC[C@H]1O[C@H](O[C@H]2O[C@H](CO)[C@@H](O)[C@H](O)[C@H]2O)[C@H](O)[C@@H](O)[C@@H]1O [trehalose, reference compound]
Percentage of aggregated cells [5]: 7.4% | Insoluble aggregated proteins in cell lysates (filter trap) [6]: 45% | Neurite branch ([2]; trehalose 10 mM): 1.31 | Neurite length ([2]; trehalose 10 mM): 25.5 µm | Colocalization coefficient of ATXN3-Q75-GFP with LC3 puncta ([3]; trehalose 10 mM): 0.025–0.030 | Colocalization coefficient of LC3 with P62 ([3]; trehalose 10 mM): 0.26–0.29 | LC3 puncta per cell ([3]; trehalose 10 mM): 4.6–6.7 | Relative LC3-II:LC3-I ratio ([4]; trehalose 10 mM): 102–124%
